Activity data for four compounds are collected here from article PMC12652692, “Synthesis and In Vitro Anticancer Evaluation of Novel Phosphonium Derivatives of Chrysin” (International Journal of Molecular Sciences, 2025).

Test in all cases: NCI60 one-dose screen
Holding throughout (assay type): cell-based

One test relates to 786-0. The note with it: Homo sapiens; 786-0, 10 μM; read-out: Growth percent. Summed up:
(§1)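 Protein content was quantified by SRB after TCA fixation at 4 °C for 1 h, following 48 h treatment with 10 µM compound. Growth was calculated as (ti − tz)/(c − tz) × 100, or (ti − tz)/tz × 100 when cell number fell below time zero.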

The test system of the next test is SNB-19. The following applies: Homo sapiens; SNB-19, 10 μM; read-out: Growth percent. In short, it runs like this: as §1
The subject of another test is KM12. The following applies: Homo sapiens; KM12, 10 μM; read-out: Growth percent. Summed up: as §1
Another test concerns CAKI-1. The note with it: Homo sapiens; CAKI-1, 10 μM; read-out: Growth percent. Summed up: as §1
The subject of another test is HL-60(TB). The note with it: Homo sapiens, read-out: Growth percent. Summed up: as §1
Another test relates to SK-MEL-5. The note with it: Homo sapiens; SK-MEL-5, 10 μM; read-out: Growth percent. In short, it runs like this:
as §1

A further test has as its system HCT-116. The following applies: Homo sapiens; HCT-116, 10 μM; read-out: Growth percent. Summed up: as §1
A further test has as its system MCF7. The note with it: Homo sapiens; MCF7, 10 μM; read-out: Growth percent. In short, it runs like this:
as §1

Another test relates to IGROV1. The note with it: Homo sapiens, IGROV-1; IGROV1, 10 μM; read-out: Growth percent. In short, it runs like this:
as §1

A further test has as its system RXF 393. The following applies: Homo sapiens; RXF 393, 10 μM; read-out: Growth percent. Summed up: as §1
A further test concerns SF-539. The note with it: Homo sapiens; SF-539, 10 μM; read-out: Growth percent. In short, it runs like this: as §1
The test system of another test is UACC-257. The note with it: Homo sapiens; UACC-257, 10 μM; read-out: Growth percent. In short, it runs like this: as §1
The next test concerns UO-31. The note with it: Homo sapiens; UO-31, 10 μM; read-out: Growth percent. In short, it runs like this:
as §1

Another test has as its system HS 578T. The following applies: Homo sapiens, read-out: Growth percent. In short, it runs like this: as §1
For the next test, the system named is DU-145. The note with it: Homo sapiens; DU-145, 10 μM; read-out: Growth percent. Summed up:
as §1

For the next test, the system named is MDA-MB-231/ATCC. The note with it: Homo sapiens, read-out: Growth percent. In short, it runs like this: as §1
A further test deals with M14. The following applies: Homo sapiens; M14, 10 μM; read-out: Growth percent. Summed up:
as §1

For another test, the system named is MALME-3M. The following applies: Homo sapiens, read-out: Growth percent. Summed up: as §1
The next test has as its system SN12C. The note with it: Homo sapiens, read-out: Growth percent. Summed up:
as §1

In the next test the test system is NCI/ADR-RES. The note with it: Homo sapiens, read-out: Growth percent. Summed up: as §1
The next test deals with HT29. The following applies: Homo sapiens, HT-29; HT29, 10 μM; read-out: Growth percent. In short, it runs like this:
as §1

As to `O=c1cc(-c2ccccc2)oc2cc(OCCCC[P+](C3CCCCC3)(C3CCCCC3)C3CCCCC3)cc(O)c12` [3e], the activity at 10 µM with 786-0 is -80.1%; with SNB-19 it was -87.6%; in the test on KM12 it was -92%; with CAKI-1, -90.8%; in the test with HL-60(TB), -20.6%; in the test with SK-MEL-5 it was -100%. Besides, the activity at 10 µM with HCT-116 was -62%; with MCF7, -77%; in the test with IGROV1, -59.4%; in the test on RXF 393, -80%; with SF-539, 87.1%; in the test with UACC-257 it was -92.2%. The activity at 10 µM is -92.5% with UO-31; -62.1% with HS 578T; -96.1% with DU-145; -81.6% with MDA-MB-231/ATCC; -82.2% with M14; -76.9% in the test with MALME-3M. The results for the activity at 10 µM with SN12C, in the test on NCI/ADR-RES and in the test with HT29 were -57%, -20.8% and -84.9%, respectively.

Regarding `COc1c(C)cc([P+](CCCCOc2cc(O)c3c(=O)cc(-c4ccccc4)oc3c2)(c2cc(C)c(OC)c(C)c2)c2cc(C)c(OC)c(C)c2)cc1C` [3f], the activity at 10 µM with 786-0 is -47%; in the test on SNB-19, -76.8%; with KM12, -82.3%; in the test with CAKI-1, -51.6%; in the test on HL-60(TB) it was -27.7%; in the test with SK-MEL-5, -75.2%. The activity at 10 µM in the test with HCT-116 was -47.6%; in the test with MCF7 it was -58%; with IGROV1, -38%; in the test with RXF 393, -66.9%; with SF-539, -89.2%; with UACC-257, -79.7%. Also, the activity at 10 µM in the test on UO-31 is -59.6%; with HS 578T, -57.7%; with DU-145 it was -92.7%; in the test on MDA-MB-231/ATCC it was -74.8%; in the test with M14, -68.3%; with MALME-3M, -42.5%. In addition, the activity at 10 µM in the test with SN12C is -77.4%; in the test on NCI/ADR-RES, -66.8%; in the test with HT29 it was -72.7%.

As to `O=c1cc(-c2ccccc2)oc2cc(OCCCC[P+](c3ccccc3)(c3ccccc3)c3ccccn3)cc(O)c12` [3h], the activity at 10 µM is -74.5% in the test on 786-0; -91.6% in the test on SNB-19; -94.6% in the test with KM12; -71.2% in the test on CAKI-1; 0.68% in the test with HL-60(TB); -96.3% in the test on SK-MEL-5. In addition, the activity at 10 µM is -61.6% with HCT-116; -62.6% in the test on MCF7; -80.1% in the test with IGROV1; -80.5% in the test on RXF 393; -96.5% in the test with SF-539; -89.8% in the test on UACC-257. Besides, the activity at 10 µM with UO-31 was -94%; in the test on HS 578T, -35.8%; in the test with DU-145, -95.3%; with MDA-MB-231/ATCC it was -94.3%; with M14, -84.3%; in the test with MALME-3M, -93.4%. Also, the values for the activity at 10 µM in the test on SN12C, in the test with NCI/ADR-RES and in the test on HT29 were -91.4%, -41.3% and -60.6%, respectively.

Turning to `O=c1cc(-c2ccccc2)oc2cc(O)cc(O)c12` [compound 2, 5,7-dihydroxyflavone, reference compound], the activity at 10 µM in the test on 786-0 came out at 99.2%; with SNB-19, 86%; with KM12, 92.9%; in the test with CAKI-1, 83.6%; in the test with HL-60(TB) it was 116%; in the test with SK-MEL-5, 92.8%. The activity at 10 µM with HCT-116 came to 82.7%; in the test with MCF7, 103%; with IGROV1, 95.2%; with RXF 393, 91.2%; in the test on SF-539, 92.2%; with UACC-257 it was 119%. Further, the activity at 10 µM in the test with UO-31 was 89.4%; in the test on HS 578T, 92.5%; with DU-145, 92%; in the test on MDA-MB-231/ATCC, 82.6%; in the test on M14, 107%; in the test with MALME-3M, 102%. Also, the activity at 10 µM in the test on SN12C stood at 85.8%; in the test with NCI/ADR-RES it was 92.8%; with HT29, 103%.
